How the values were obtained:
Assay in all cases: relative viability (nuclei count vs DMSO), 5 days (fraction); higher = more cells survive
[1] = compound: CCN(CCO)CCCC(C)Nc1ccnc2cc(Cl)ccc12 [Hydroxychloroquine] + CC(=O)c1c(C)c2cnc(Nc3ccc(N4CCNCC4)cn3)nc2n(C2CCCC2)c1=O [Palbociclib] (partner 0.5 µM)
How it was run: (§1)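 Lung cancer cell lines were seeded in 1536-well plates and dosed by pin tool the next day, with either a single drug or a fixed anchor-drug dose combined with five library-drug doses (not always all listed) spaced in √10 steps. Five days later, one step fixed the cells and stained their nuclei (final 0.05% Triton X-100, 1% formaldehyde, 1 ug/ml Hoechst), and nuclei were counted on 4× images. Relative viability is the nuclei count in treated wells divided by the count in vehicle wells, and each value is the median of duplicate plates.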

[2] = compound: CCN(CCO)CCCC(C)Nc1ccnc2cc(Cl)ccc12 [Hydroxychloroquine] + Cc1nc(Nc2ncc(C(=O)Nc3c(C)cccc3Cl)s2)cc(N2CCN(CCO)CC2)n1 [Dasatinib] (partner 0.075 µM)
How it was run: as §1

[3] = compound: CCN(CCO)CCCC(C)Nc1ccnc2cc(Cl)ccc12 [Hydroxychloroquine] + CCNC(=O)c1noc(-c2cc(C(C)C)c(O)cc2O)c1-c1ccc(CN2CCOCC2)cc1 [Luminespib] (partner 0.01 µM)
How it was run: as §1

[4] = compound: CCN(CCO)CCCC(C)Nc1ccnc2cc(Cl)ccc12 [Hydroxychloroquine] + CC(C)C[C@H](NC(=O)[C@H](Cc1ccccc1)NC(=O)c1cnccn1)B(O)O [Bortezomib] (partner 0.002 µM)
How it was run: as §1

| Cell Line | relative viability ([1]; first compound 0.5 µM) | relative viability ([1]; first compound 1.581 µM) | relative viability ([1]; first compound 5 µM) | relative viability ([1]; first compound 15.81 µM) | relative viability ([1]; first compound 50 µM) | relative viability ([2]; first compound 0.5 µM) | relative viability ([2]; first compound 1.581 µM) | relative viability ([2]; first compound 5 µM) | relative viability ([2]; first compound 15.81 µM) | relative viability ([2]; first compound 50 µM) | relative viability ([3]; first compound 0.5 µM) | relative viability ([3]; first compound 1.581 µM) | relative viability ([3]; first compound 5 µM) | relative viability ([3]; first compound 15.81 µM) | relative viability ([3]; first compound 50 µM) | relative viability ([4]; first compound 0.5 µM) | relative viability ([4]; first compound 1.581 µM) | relative viability ([4]; first compound 5 µM) | relative viability ([4]; first compound 15.81 µM) | relative viability ([4]; first compound 50 µM) |
| --- | --- | --- | --- | --- | --- | --- | --- | --- | --- | --- | --- | --- | --- | --- | --- | --- | --- | --- | --- | --- |
| COR-L 105 | 0.41 | 0.354 | 0.405 | 0.391 | 0.392 | 0.284 | 0.384 | 0.34 | 0.298 | 0.272 | 0.883 | 0.718 | 0.579 | 0.709 | 0.882 | 0.879 | 0.664 | 0.694 | 0.737 | 0.891 |
| LK-2 | 0.884 | 0.832 | 0.762 | 0.809 | 0.697 | 0.258 | 0.261 |  | 0.294 | 0.357 | 0.192 | 0.171 |  | 0.193 | 0.224 |  |  |  |  |  |
| NCI-H838 | 0.237 | 0.197 | 0.242 | 0.194 | 0.22 | 0.256 | 0.258 | 0.296 | 0.242 | 0.237 | 0.318 | 0.304 | 0.333 | 0.295 | 0.268 | 0.9 | 0.819 | 0.663 | 0.79 | 0.805 |
| SK-LU-1 | 0.381 | 0.382 | 0.432 | 0.361 | 0.431 | 0.214 | 0.168 | 0.174 | 0.16 | 0.17 | 0.21 | 0.209 | 0.21 | 0.205 | 0.187 | 1.27 | 1.04 | 1.29 | 1.18 | 1.37 |
| NCI-H2023 | 0.376 | 0.431 | 0.349 | 0.396 | 0.386 | 0.624 | 0.478 | 0.563 | 0.542 | 0.617 | 0.75 | 0.657 | 0.784 | 0.899 | 0.642 | 1.06 | 0.942 | 1.01 | 0.964 | 1.03 |
| NCI-H322M | 0.484 | 0.43 | 0.431 | 0.482 | 0.457 | 0.256 | 0.248 | 0.258 | 0.253 | 0.263 | 0.758 | 0.803 | 0.902 | 0.777 | 0.798 | 1.31 | 1.27 | 1.16 | 1.36 | 1.2 |
| NCI-H1666 | 0.651 | 0.67 | 0.653 | 0.646 | 0.622 | 0.845 | 0.771 | 0.815 | 0.793 | 0.765 | 1.02 | 0.989 | 0.981 | 1.01 | 0.923 | 0.907 | 0.658 | 0.652 | 0.714 | 0.772 |
| NCI-H1648 | 0.277 | 0.264 | 0.266 | 0.211 | 0.288 |  |  |  |  |  |  |  |  |  |  |  |  |  |  |  |
| NCI-H2087 | 0.189 | 0.227 | 0.231 | 0.189 | 0.213 | 0.96 | 0.77 | 0.794 | 0.954 | 0.969 | 0.187 | 0.195 | 0.175 | 0.19 | 0.329 | 0.829 | 0.959 | 0.835 | 0.869 | 1.1 |
| LU99A | 0.356 | 0.383 | 0.377 | 0.444 | 0.473 | 0.47 | 0.502 | 0.714 | 0.613 | 0.612 | 0.279 | 0.248 | 0.265 | 0.226 | 0.268 | 1.11 | 1.02 | 1.11 | 1.08 | 1.26 |
| HCC-366 | 0.324 | 0.406 | 0.366 | 0.381 | 0.665 | 0.739 | 0.731 | 0.624 | 0.768 | 0.719 |  |  |  |  |  | 1.1 | 1.15 | 1.04 | 1.06 | 1.16 |
| EKVX | 0.354 | 0.374 | 0.377 | 0.74 | 0.412 | 0.512 | 0.502 | 0.495 | 0.535 | 0.337 | 0.894 | 0.887 | 0.836 | 0.836 | 0.865 | 1.26 | 0.925 | 1.04 | 0.916 | 1.09 |
| NCI-H522 | 0.822 |  | 1.03 | 0.986 | 0.798 | 0.933 | 0.942 | 0.755 | 1.03 | 0.913 | 1.17 | 1.12 | 1.08 | 1.31 | 1.32 |  |  |  |  |  |
| NCI-H1755 | 0.459 | 0.398 | 0.445 | 0.443 | 0.475 | 0.498 | 0.381 | 0.422 | 0.392 | 0.394 | 0.489 | 0.403 | 0.517 | 0.354 | 0.432 | 0.955 | 0.868 | 0.918 | 0.927 | 0.953 |
| NCI-H650 | 0.341 | 0.288 | 0.3 | 0.35 | 0.311 | 0.501 | 0.405 | 0.446 | 0.458 | 0.479 | 0.884 | 0.818 | 0.78 | 0.881 | 0.795 | 0.911 | 0.759 |  | 0.901 | 0.748 |
| LC-2-ad | 0.454 | 0.454 | 0.486 | 0.555 | 0.476 | 0.56 | 0.684 | 0.603 | 0.639 | 0.595 | 1.19 | 1.02 | 0.906 | 1.01 | 0.969 | 0.974 | 1.03 | 1.04 | 1.01 | 1.12 |
| NCI-H1793 | 0.331 | 0.311 | 0.372 | 0.325 | 0.312 | 0.464 | 0.36 | 0.423 | 0.413 | 0.476 | 0.357 | 0.197 | 0.16 | 0.15 | 0.194 |  |  |  |  |  |
| HCC-827 | 0.413 | 0.456 | 0.467 | 0.466 | 0.521 | 0.306 | 0.378 | 0.312 | 0.388 | 0.314 | 0.781 | 0.629 | 0.686 | 0.522 | 0.85 | 1.03 | 1.04 | 1.07 | 1.16 | 1.01 |

From the supplement of paper PMC10307832
